These results are taken from US20200276334A1, “New Therapy for Pompe Disease” (Erasmus University Medical Center Rotterdam, priority 2017, published 2020).

In one data set the test system is Control 1 iPSCs. Description: Optimization of CHIR99021 concentration, Control 1 iPSC colonies (confluency, Pax7 staining). Type of data set: cell-based, human. The procedure:
(§1) A confluent iPSC culture in a 35 mm dish was incubated for 5 minutes at 37° C. with 2 mg/ml collagenase IV in DMEM/F12, cut into pieces with a 23 gauge needle, detached with a cell scraper and split into a 10 cm dish with a confluency of 40%. After 5 days, differentiation into myogenic progenitor cells (MPCs) was started with myogenic differentiation medium (DMEM/F12, 1% Insulin-Transferrin-Selenium-Ethanolamine, 1% penicillin/streptomycin/L-glutamine) supplemented with 3.5 μM CHIR99021 for 5 days and changed to myogenic differentiation medium supplemented with 20 ng/ml FGF2 (Peprotech. London. UK) for 14 days. The last 16 days, cells were cultured in myogenic differentiation medium only. For FACS purification cells were detached with TrypLE and stained on ice with anti-C-MET-APC (1:50, R&D systems, Minneapolis Minn.) and anti-HNK-1-FITC (1:100, Aviv Systems Biology, San Diego. Calif.) antibodies. Prior to FACS, Hoechst (33258, Life Technologies, Carlsbad, Calif.) was added to stain live cells. The c-MET^+/Hoechst^+/Hnk-1^− fraction was sorted in MPC proliferation medium (DMEM high glucose supplemented with 10% fetal bovine serum, 1% penicillin/streptomycin/L-glutamine and 100 ng/ml FGF2) supplemented with 1× Revitacell supplement (Gibco, Waltham. Mass.). For slightly positive cultures, MPCs were sorted with a maximum sorting time of 20 minutes and pooled into a single well until amount of 20.000 for 96 well, 40.000 for 48 well or 80.000 for 24 well was reached. After 24 hours. MPCs were expanded in MPC proliferation medium or cryopreserved. Further details are described previously (van der Wal et al., 2017).
(§2) Differentiated cells were fixed by adding 1 volume of 4% paraformaldehyde (PFA) (Merck, Kenilworth, N.J.) in PBS to the medium. PFA was incubated for 10 minutes at room temperature and afterwards replaced by PBS. Fixed cells were either stored at 4° C. or directly stained. For staining, cells were permeabilized for 5 minutes with 0.1% Triton X-100 (AppliChem, Darmstadt, Germany) in PBS and blocked for 30 minutes at room temperature in blocking solution (PBS-T (0.1% Tween. Sigma Aldrich, Irvine. UK) with 3% BSA (Sigma Aldrich. Irvine, UK)). Primary antibodies (Table 5) were incubated 1 hour at room temperature and diluted into 0.1% BSA in PBS-T. The unbound first antibody was removed by washing three times for 5 minutes with PBS-T. Secondary antibodies (1:500, Alexa-Fluor-594-α-goat, Alexa-Fluor-488-α-mouse, Alexa-Fluor-594-α-rabbit, Alexa-Fluor-488-α-rabbit, Invitrogen, Carlsbad, Calif. or horse anti-mouse biotin, Vector Laboratories, Burlingame, Calif.) were incubated for 30 minutes at room temperature in PBS-T. When a secondary biotinylated antibody was used cells were washed three times for 5 minutes with PBS-T and incubated with Streptavidine 594 (1:500. Invitrogen, Carlsbad. Calif.,). The cells were subsequently washed two times for 5 minutes with PBS and incubated for 15 minutes with Hoechst (1:15000. Thermo Scientific, Waltham, Mass.). Cells were imaged in PBS.
(§3) The first step of the differentiation procedure from iPSCs into MPCs is the stimulation of the Wnt pathway with CHIR99021. In a previous study on which the current protocol was based. […] In order to define the optimal concentration of CHIR99021 we generated single cells from iPSCs, and incubated these with 10 μM CHIR99021 for 2 days, followed by the differentiation procedure highlighted in FIG. 5. […] Generating single iPSCs in feeder-based culture systems causes massive apoptosis and addition of Rock inhibitor is required (Watanabe et al., 2007). To keep the differentiation protocol applicable for feeder-dependent and feeder-free cultures we decided to further optimize the concentration of CHIR99021 on plated iPSC colonies with a range from 3 to 5 μM CHIR99021, with incubation for 4, 5, 8 or 10 days. […] To avoid toxicity, we used a concentration of 3.5 μM CHIR99021 in our final differentiation protocol.

The subject of another data set is Control 2 iPSCs. Description: Optimization of CHIR99021 concentration, Control 2 iPSC colonies (confluency, Pax7 staining). The class given is cell-based, human. The procedure:
as §1, §2, §3

The subject of data set [1] is iPSC lines used in this study. Description: CHIR99021 optimisation for differentiation of iPSCs into myogenic progenitor cells. The class given is cell-based, human. On the procedure:
as §1
The first step of the differentiation procedure from iPSCs into MPCs is the stimulation of the Wnt pathway with CHIR99021. In a previous study on which the current protocol was based. […] In order to define the optimal concentration of CHIR99021 we generated single cells from iPSCs, and incubated these with 10 μM CHIR99021 for 2 days, followed by the differentiation procedure highlighted in FIG. 5. […]

In another data set the test system is pluripotent stem cells. Conditions: cited from earlier work.
For data set [2] the following is noted: cited from earlier work.

Read-outs that look alike come from different tables or passages of the source.

`Cc1cnc(-c2cnc(NCCNc3ccc(C#N)cn3)nc2-c2ccc(Cl)cc2Cl)[nH]1` [CHIR99021, 6-[2-[[4-(2,4-dichlorophenyl)-5-(5-methyl-1H-imidazol-2-yl)pyrimidin-2-yl]amino]ethylamino]pyridine-3-carbonitrile]: the Confluency with Control 1 iPSCs (3 μM CHIR99021, 4 days) is given as 65%; in the data set on Control 1 iPSCs (3 μM CHIR99021, 5 days), 50%; in the data set with Control 1 iPSCs (3 μM CHIR99021, 8 days) it was 40%; in the data set with Control 1 iPSCs (3 μM CHIR99021, 10 days), 40%; in the data set on Control 1 iPSCs (4 μM CHIR99021, 4 days) it was 85%; in the data set with Control 1 iPSCs (4 μM CHIR99021, 5 days), 100%. Besides, the Confluency in the data set with Control 1 iPSCs (4 μM CHIR99021, 8 days) was 75%; in the data set on Control 1 iPSCs (4 μM CHIR99021, 10 days), 50%; with Control 1 iPSCs (5 μM CHIR99021, 4 days) it was 60%; in the data set with Control 1 iPSCs (5 μM CHIR99021, 5 days), 70%; in the data set on Control 1 iPSCs (5 μM CHIR99021, 8 days), 0%; in the data set with Control 1 iPSCs (5 μM CHIR99021, 10 days), 0%. Further, the Confluency with Control 2 iPSCs (3 μM CHIR99021, 4 days) came to 95%; in the data set on Control 2 iPSCs (3 μM CHIR99021, 5 days) it was 100%; with Control 2 iPSCs (3 μM CHIR99021, 8 days), 90%; in the data set on Control 2 iPSCs (3 μM CHIR99021, 10 days), 95%; with Control 2 iPSCs (4 μM CHIR99021, 4 days) it was 95%; in the data set with Control 2 iPSCs (4 μM CHIR99021, 5 days) it was 95%. The Confluency is on record as 95% with Control 2 iPSCs (4 μM CHIR99021, 8 days); 85% with Control 2 iPSCs (4 μM CHIR99021, 10 days); 95% with Control 2 iPSCs (5 μM CHIR99021, 4 days); 95% in the data set with Control 2 iPSCs (5 μM CHIR99021, 5 days); 50% with Control 2 iPSCs (5 μM CHIR99021, 8 days); 30% in the data set on Control 2 iPSCs (5 μM CHIR99021, 10 days). Moreover, the “Pax7+” value in the data set on Control 1 iPSCs (3 μM CHIR99021, 4 days) is “+ +”; in the data set on Control 1 iPSCs (4 μM CHIR99021, 4 days) it was “+ + +”; with Control 1 iPSCs (4 μM CHIR99021, 5 days) it was “+ + +”; in the data set on Control 1 iPSCs (4 μM CHIR99021, 10 days) it was “+ +”; with Control 1 iPSCs (5 μM CHIR99021, 4 days) it was “+ +”; in the data set on Control 1 iPSCs (5 μM CHIR99021, 5 days), “+ + +”. Besides, the “Pax7+” value was “+ +” in the data set with Control 2 iPSCs (4 μM CHIR99021, 4 days); “+ +” with Control 2 iPSCs (4 μM CHIR99021, 5 days); “+ +” with Control 2 iPSCs (4 μM CHIR99021, 8 days); “+ +” in the data set on Control 2 iPSCs (5 μM CHIR99021, 5 days). For the same compound, in data set [1] (control 1 and control 2 iPSCs, 4 μM CHIR99021 for 5 days, range tested 3 to 5 μM for 4, 5, 8 or 10 days), the “Pax7 staining, amount of Pax7-positive areas in the culture” value is reported as “highest amount of Pax7-positive areas”. In data set [1] (plated iPSC colonies), the “concentration resulting in higher toxicity levels and more variable response among iPSC lines” value is more than 4 µM. Moreover, the “Pax7 positive cells after 40 days of differentiation” value in data set [1] (single cells from iPSCs, 10 μM CHIR99021 for 2 days) is recorded as “Pax7 positive cells were observed”. Besides, in the data set with pluripotent stem cells (10 μM CHIR99021 incubated for 2 days, Shelton et al., 2014), the “induction of paraxial mesoderm” value is reported as “better induction of paraxial mesoderm”. For the same compound, in the data set with pluripotent stem cells (Borchin et al., 2013), the “concentration at which toxicity was described” value is listed as “higher than 3 μM”.

Consider “recombinant human GAA: recombinant human acid α-glucosidase used for enzyme replacement therapy”, for which the half life in data set [2] (in blood) is 2 to 3 h; in data set [2] (in cells), “several days”.
